Literature values as cited in US20260272826A1 (THEAPRIN PHARMACEUTICALS, INC., priority 2017, published 2026).

Experiments:
[1] = tribasic
[2] = tested on: thrombin stimulated thromboxane formulation in whole blood; conditions: theanine by itself
rats = conditions: rat, in vivo

O=C(O)CC(O)(CC(=O)O)C(=O)O [Citric Acid, 2-hydroxypropane-1,2,3-tricarboxylic acid]
pKa 1 ([1]; first of pKa 1-3): 5.21
pKa 2 ([1]; second of pKa 1-3): 4.28
pKa 3 ([1]; third of pKa 1-3): 2.92

CCNC(=O)CC[C@H](N)C(=O)O [L-theanine, N-ethyl-L-glutamine]
inhibition of thrombin stimulated thromboxane formulation [2]: potent inhibitor
solubility in water: soluble in water
LD50 toxicity (rats): > 5000 mg/kg
